Data as given in US4486419A, “5,2',3',4',4",6"-Hexadeoxykanamycin and its 1-N-acylated derivative” (Zaidan Hojin Biseibutsu Kagaku Kenkyu Kai, priority 1982, dated 1984).
Converted amounts (≈) assume the structure as drawn. Read-outs that look alike come from different tables or passages of the source.

Experiments:
[1] = test system: Pseudomonas aeruginosa 99; format: cell-based
[2] = test system: Pseudomonas aeruginosa B-13; format: cell-based
[3] = test system: Escherichia coli JR255; test: microbe, parasite or virus in culture; format: cell-based; details: JR255, 18 h
[4] = test system: Escherichia coli NIHJ; format: cell-based; details: nutrient agar, 37° C., 18 hours
[5] = test system: Escherichia coli K-12 R5; format: cell-based; details: K12R5, 18 h
[6] = test system: Providencia Pv 16; format: cell-based; details: PV16, nutrient agar, 37° C., 18 hours
[7] = test system: Salmonella enteritidis 1891; format: cell-based; details: Salmonella enterica, nutrient agar, 37° C., 18 hours
[8] = test system: Proteus vulgaris OX19; format: cell-based; details: nutrient agar, 37° C., 18 hours
[9] = test system: Escherichia coli W677; format: cell-based; details: nutrient agar, 37° C., 18 hours
[10] = test system: Corynebacterium bovis 1810; test: microbe, parasite or virus in culture; details: Corynebacterium bovis, 1810, 18 h
Procedure: (§1) Thus, the minimum inhibitory concentrations (mcg/ml) of the hexadeoxykanamycin and of the hexadeoxyamikacin according to this invention against various microorganisms were determined according to serial dilution method on a nutrient agar medium at 37° C., the estimation being made after 18 hours incubation. For comparison purpose, the minimum inhibitory concentrations of amikacin were also determined in the same manner as stated above.

[11] = test system: Serratia marcescens; test: microbe, parasite or virus in culture; details: 18 h
Procedure: as §1

[12] = test system: Escherichia coli K-12 ML 1629; format: cell-based; details: K12ML1629, nutrient agar, 37° C., 18 hours
[13] = test system: Micrococcus luteus PCI 1001; format: cell-based; details: PCI1001, nutrient agar, 37° C., 18 hours
[14] = test system: Pseudomonas aeruginosa GN315; format: cell-based; details: nutrient agar, 37° C., 18 hours
[15] = test system: Escherichia coli K-12 LA 290 R56; test: microbe, parasite or virus in culture; format: cell-based; details: K12LA290R56, 18 h
[16] = test system: Klebsiella pneumoniae 22 #3038; format: cell-based; details: nutrient agar, 37° C., 18 hours
[17] = test system: Shigella flexneri 4b JS11811; format: cell-based; details: 4BJS11811, nutrient agar, 37° C., 18 hours
[18] = test system: Bacillus subtilis NRRL B-558; format: cell-based; details: NRRLB558, nutrient agar, 37° C., 18 hours
[19] = test system: Shigella sonnei JS11746; format: cell-based; details: nutrient agar, 37° C., 18 hours
[20] = test system: Staphylococcus aureus FDA 209P; format: cell-based; details: FDA209P, nutrient agar, 37° C., 18 hours
[21] = test system: Escherichia coli K-12 LA 290 R55; test: microbe, parasite or virus in culture; format: cell-based; details: K12LA290R55, 18 h
[22] = test system: Proteus rettgeri GN311; format: cell-based; details: Providencia rettgeri, nutrient agar, 37° C., 18 hours
[23] = test system: Escherichia coli K-12 ML 1410 R81; test: microbe, parasite or virus in culture; format: cell-based; details: 18 h
[24] = test system: Bacillus anthracis; test: microbe, parasite or virus in culture; format: cell-based; details: 18 h
[25] = test system: Shigella dysenteriae JS 11910; format: cell-based; details: JS11910, 18 h
[26] = test system: Pseudomonas aeruginosa TI-13; format: cell-based; details: TI13, nutrient agar, 37° C., 18 hours
[27] = test system: Mycobacterium smegmatis ATCC 607; format: cell-based; details: Mycolicibacterium smegmatis, ATCC607; nutrient agar, 37° C., 18 hours
[28] = test system: Serratia SOU; format: cell-based; details: nutrient agar, 37° C., 18 hours
[29] = test system: Bacillus subtilis PCI 219; format: cell-based; details: PCI219, nutrient agar, 37° C., 18 hours
[30] = test system: Salmonella typhi T-63; format: cell-based; details: Salmonella enterica, 18 h
[31] = test system: Proteus rettgeri GN466; format: cell-based; details: Providencia rettgeri, nutrient agar, 37° C., 18 hours
[32] = test system: Escherichia coli K-12; format: cell-based; details: K12, nutrient agar, 37° C., 18 hours
[33] = test system: Staphylococcus aureus Ap01; format: cell-based; details: nutrient agar, 37° C., 18 hours
[34] = test system: Providencia 2991; format: cell-based; details: nutrient agar, 37° C., 18 hours
[35] = test system: Escherichia coli K-12 LA 290 R64; test: microbe, parasite or virus in culture; format: cell-based; details: K12LA290R64, 18 h
[36] = test system: Pseudomonas aeruginosa 21-75; format: cell-based; details: 2175, nutrient agar, 37° C., 18 hours
[37] = test system: Escherichia coli JR66/W677; format: cell-based; details: JR66/W677, 18 h
[38] = test system: Escherichia coli K-12 J5R 11-2; format: cell-based; details: K12J5R112, nutrient agar, 37° C., 18 hours
[39] = test system: Escherichia coli K-12 ML 1410; format: cell-based; details: K12ML1410, nutrient agar, 37° C., 18 hours
[40] = test system: Pseudomonas aeruginosa A3; format: cell-based
[41] = test system: Serratia 4; format: cell-based; details: nutrient agar, 37° C., 18 hours
[42] = Pseudomonas aeruginosa, 99, 18 h

NCC[C@H](O)C(=O)N[C@@H]1C[C@H](N)[C@@H](O[C@H]2O[C@H](CN)[C@@H](O)[C@H](O)[C@H]2O)[C@H](O)[C@H]1O[C@H]1O[C@H](CO)[C@@H](O)[C@H](N)[C@H]1O [Amikacin, 1-N-[(S)-4-amino-2-hydroxybutyryl]kanamycin A, reference compound]
MIC ([1]; Pseudomonas aeruginosa, 99, nutrient agar, 37° C., 18 hours, read-out: MIC): 6.25 µg/mL (≈ 10.7 µM)
MIC ([2]; B13, nutrient agar, 37° C., 18 hours, read-out: MIC): 6.25 µg/mL (≈ 10.7 µM)
MIC [3]: 0.78 µg/mL (≈ 1.33 µM)
MIC [4]: 1.56 µg/mL (≈ 2.66 µM)
MIC [5]: 100 µg/mL (≈ 171 µM)
MIC [6]: 1.56 µg/mL (≈ 2.66 µM)
MIC [7]: 1.56 µg/mL (≈ 2.66 µM)
MIC [8]: 1.56 µg/mL (≈ 2.66 µM)
MIC [9]: 0.78 µg/mL (≈ 1.33 µM)
MIC [10]: 1.56 µg/mL (≈ 2.66 µM)
MIC [11]: 1.56 µg/mL (≈ 2.66 µM)
MIC [12]: 1.56 µg/mL (≈ 2.66 µM)
MIC [13]: 3.13 µg/mL (≈ 5.34 µM)
MIC [14]: 25 µg/mL (≈ 42.7 µM)
MIC [15]: 0.78 µg/mL (≈ 1.33 µM)
MIC [16]: 3.13 µg/mL (≈ 5.34 µM)
MIC [17]: 3.13 µg/mL (≈ 5.34 µM)
MIC [18]: 0.39 µg/mL (≈ 0.666 µM)
MIC [19]: 3.13 µg/mL (≈ 5.34 µM)
MIC [20]: 0.78 µg/mL (≈ 1.33 µM)
MIC [21]: 1.56 µg/mL (≈ 2.66 µM)
MIC [22]: 0.39 µg/mL (≈ 0.666 µM)
MIC [23]: 1.56 µg/mL (≈ 2.66 µM)
MIC [24]: 0.78 µg/mL (≈ 1.33 µM)
MIC [25]: 3.13 µg/mL (≈ 5.34 µM)
MIC [26]: 3.13 µg/mL (≈ 5.34 µM)
MIC [27]: 0.78 µg/mL (≈ 1.33 µM)
MIC [28]: 25 µg/mL (≈ 42.7 µM)
MIC [29]: 0.39 µg/mL (≈ 0.666 µM)
MIC [30]: 0.39 µg/mL (≈ 0.666 µM)
MIC [31]: 0.78 µg/mL (≈ 1.33 µM)
MIC [32]: 0.39 µg/mL (≈ 0.666 µM)
MIC [33]: 1.56 µg/mL (≈ 2.66 µM)
MIC [34]: 1.56 µg/mL (≈ 2.66 µM)
MIC [35]: 1.56 µg/mL (≈ 2.66 µM)
MIC [36]: 12.5 µg/mL (≈ 21.3 µM)
MIC [37]: 3.13 µg/mL (≈ 5.34 µM)
MIC [38]: 1.56 µg/mL (≈ 2.66 µM)
MIC [39]: 1.56 µg/mL (≈ 2.66 µM)
MIC ([40]; A3, nutrient agar, 37° C., 18 hours, read-out: MIC): < 0.2 µg/mL
MIC [41]: 3.13 µg/mL (≈ 5.34 µM)

C[C@@H]1C[C@H](N)[C@@H](O)[C@@H](O[C@@H]2C[C@H](O[C@@H]3CCC[C@@H](CN)O3)[C@@H](N)C[C@H]2NC(=O)[C@@H](O)CCN)O1 [Hexadeoxyamikacin, 1-N-[(S)-4-amino-2-hydroxybutyryl]-5,2',3',4',4",6"-hexadeoxykanamycin]
MIC [1, 42]: 50 µg/mL (≈ 102 µM)
MIC ([2]; B13, 18 h): 50 µg/mL (≈ 102 µM)
MIC [3]: 0.78 µg/mL (≈ 1.59 µM)
MIC [4]: 1.56 µg/mL (≈ 3.19 µM)
MIC [5]: 100 µg/mL (≈ 204 µM)
MIC [6]: 3.13 µg/mL (≈ 6.39 µM)
MIC [7]: 3.13 µg/mL (≈ 6.39 µM)
MIC [8]: 0.78 µg/mL (≈ 1.59 µM)
MIC [9]: 0.78 µg/mL (≈ 1.59 µM)
MIC [10]: 6.25 µg/mL (≈ 12.8 µM)
MIC [11]: 6.25 µg/mL (≈ 12.8 µM)
MIC [12]: 1.56 µg/mL (≈ 3.19 µM)
MIC [13]: 6.25 µg/mL (≈ 12.8 µM)
MIC [14]: > 100 µg/mL
MIC [15]: 1.56 µg/mL (≈ 3.19 µM)
MIC [16]: 3.13 µg/mL (≈ 6.39 µM)
MIC [17]: 6.25 µg/mL (≈ 12.8 µM)
MIC [18]: 0.78 µg/mL (≈ 1.59 µM)
MIC [19]: 3.13 µg/mL (≈ 6.39 µM)
MIC [20]: 0.78 µg/mL (≈ 1.59 µM)
MIC [21]: 1.56 µg/mL (≈ 3.19 µM)
MIC [22]: 1.56 µg/mL (≈ 3.19 µM)
MIC [23]: 3.13 µg/mL (≈ 6.39 µM)
MIC [24]: 1.56 µg/mL (≈ 3.19 µM)
MIC [25]: 6.25 µg/mL (≈ 12.8 µM)
MIC [26]: 12.5 µg/mL (≈ 25.5 µM)
MIC [27]: 1.56 µg/mL (≈ 3.19 µM)
MIC [28]: 50 µg/mL (≈ 102 µM)
MIC [29]: 0.78 µg/mL (≈ 1.59 µM)
MIC [30]: 0.78 µg/mL (≈ 1.59 µM)
MIC [31]: 1.56 µg/mL (≈ 3.19 µM)
MIC [32]: 0.78 µg/mL (≈ 1.59 µM)
MIC [33]: 3.13 µg/mL (≈ 6.39 µM)
MIC [34]: 6.25 µg/mL (≈ 12.8 µM)
MIC [35]: 3.13 µg/mL (≈ 6.39 µM)
MIC [36]: 100 µg/mL (≈ 204 µM)
MIC [37]: 3.13 µg/mL (≈ 6.39 µM)
MIC [38]: 1.56 µg/mL (≈ 3.19 µM)
MIC [39]: 3.13 µg/mL (≈ 6.39 µM)
MIC ([40]; A3, 18 h): 0.78 µg/mL (≈ 1.59 µM)
MIC [41]: 12.5 µg/mL (≈ 25.5 µM)

C[C@@H]1C[C@H](N)[C@@H](O)[C@@H](O[C@@H]2C[C@H](O[C@@H]3CCC[C@@H](CN)O3)[C@@H](N)C[C@H]2N)O1 [Hexadeoxykanamycin, 5,2',3',4',4",6"-hexadeoxykanamycin]
MIC [1, 42]: > 100 µg/mL
MIC ([2]; B13, 18 h): > 100 µg/mL
MIC [3]: 1.56 µg/mL (≈ 4.02 µM)
MIC [4]: 3.13 µg/mL (≈ 8.06 µM)
MIC [5]: > 100 µg/mL
MIC [6]: 12.5 µg/mL (≈ 32.2 µM)
MIC [7]: 1.56 µg/mL (≈ 4.02 µM)
MIC [8]: 1.56 µg/mL (≈ 4.02 µM)
MIC [9]: 1.56 µg/mL (≈ 4.02 µM)
MIC [10]: 6.25 µg/mL (≈ 16.1 µM)
MIC [11]: 6.25 µg/mL (≈ 16.1 µM)
MIC [12]: 25 µg/mL (≈ 64.3 µM)
MIC [13]: 12.5 µg/mL (≈ 32.2 µM)
MIC [14]: > 100 µg/mL
MIC [15]: 12.5 µg/mL (≈ 32.2 µM)
MIC [16]: > 100 µg/mL
MIC [17]: 6.25 µg/mL (≈ 16.1 µM)
MIC [18]: 0.78 µg/mL (≈ 2.01 µM)
MIC [19]: 3.13 µg/mL (≈ 8.06 µM)
MIC [20]: 1.56 µg/mL (≈ 4.02 µM)
MIC [21]: 100 µg/mL (≈ 257 µM)
MIC [22]: 0.78 µg/mL (≈ 2.01 µM)
MIC [23]: 25 µg/mL (≈ 64.3 µM)
MIC [24]: 1.56 µg/mL (≈ 4.02 µM)
MIC [25]: 6.25 µg/mL (≈ 16.1 µM)
MIC [26]: 50 µg/mL (≈ 129 µM)
MIC [27]: 0.78 µg/mL (≈ 2.01 µM)
MIC [28]: > 100 µg/mL
MIC [29]: 0.78 µg/mL (≈ 2.01 µM)
MIC [30]: 0.78 µg/mL (≈ 2.01 µM)
MIC [31]: 1.56 µg/mL (≈ 4.02 µM)
MIC [32]: 1.56 µg/mL (≈ 4.02 µM)
MIC [33]: 3.13 µg/mL (≈ 8.06 µM)
MIC [34]: 50 µg/mL (≈ 129 µM)
MIC [35]: 25 µg/mL (≈ 64.3 µM)
MIC [36]: > 100 µg/mL
MIC [37]: > 100 µg/mL
MIC [38]: 25 µg/mL (≈ 64.3 µM)
MIC [39]: 3.13 µg/mL (≈ 8.06 µM)
MIC ([40]; A3, 18 h): 3.13 µg/mL (≈ 8.06 µM)
MIC [41]: 25 µg/mL (≈ 64.3 µM)
